Reference: patent publication US5179088A, “1-Carba(dethia)cephalosporin antibiotics” (Eli Lilly and Company, priority 1990, dated 1993)

What was measured:
Type in all cases: cell-based
Parameters in all cases: unit not given here
Staphylococcus Aureus = test: in vitro antibacterial activity, agar dilution (Staphylococcus aureus)
Description: (§1) *minimum inhibitory concentrations were determined by the Agardilution

Staphylococcus Epi = test: in vitro antibacterial activity, agar dilution (Staphylococcus epi)
Description: as §1

Salmonella = test: in vitro antibacterial activity, agar dilution (Salmonella)
Description: as §1

Enterbacter Cloacea = test: in vitro antibacterial activity, agar dilution (Enterobacter cloacae)
Description: as §1

Acin = test: in vitro antibacterial activity, agar dilution (Acin); conditions: strain AC12
Description: as §1

Klebsiella = test: in vitro antibacterial activity, agar dilution (Klebsiella)
Description: as §1

Streptococcus pn = test: in vitro antibacterial activity, agar dilution (Streptococcus pn); conditions: strain PARK
Description: as §1

H. Influ. = test: in vitro antibacterial activity, agar dilution (H. influ.)
Description: as §1

Streptococcus D = test: in vitro antibacterial activity, agar dilution (Streptococcus D)
Description: as §1

Proteus rett = test: in vitro antibacterial activity, agar dilution (Proteus rett); conditions: strain C24
Description: as §1

Enterbacter Aerogenes = test: in vitro antibacterial activity, agar dilution (Enterobacter aerogenes)
Description: as §1

Proteus incon = test: in vitro antibacterial activity, agar dilution (Proteus incon); conditions: strain PR33
Description: as §1

Citro = test: in vitro antibacterial activity, agar dilution (Citro); conditions: strain CF17
Description: as §1

E. coli = test: in vitro antibacterial activity, agar dilution (E. coli)
Description: as §1

Pseudomonas = test: in vitro antibacterial activity, agar dilution (Pseudomonas)
Description: as §1

Shig. sonn = test: in vitro antibacterial activity, agar dilution (Shig. sonn); conditions: strain N9
Description: as §1

Streptococcus A = test: in vitro antibacterial activity, agar dilution (Streptococcus A); conditions: strain C203
Description: as §1

Proteus morg = test: in vitro antibacterial activity, agar dilution (Proteus morg); conditions: strain PR15
Description: as §1

Serratia = test: in vitro antibacterial activity, agar dilution (Serratia)
Description: as §1

Compound | minimum inhibitory concentration (Staphylococcus Aureus; strain S13E) | minimum inhibitory concentration (Staphylococcus Aureus; strain V41) | minimum inhibitory concentration (Staphylococcus Aureus; strain X1.1) | minimum inhibitory concentration (Staphylococcus Aureus; strain X400) | minimum inhibitory concentration (Staphylococcus Epi; strain 222) | minimum inhibitory concentration (Staphylococcus Epi; strain 270) | minimum inhibitory concentration (Salmonella; strain 1335) | minimum inhibitory concentration (Salmonella; strain X514) | minimum inhibitory concentration (Enterbacter Cloacea; strain 265A) | minimum inhibitory concentration (Enterbacter Cloacea; strain EB5) | minimum inhibitory concentration (Acin) | minimum inhibitory concentration (Klebsiella; strain KAE) | minimum inhibitory concentration (Klebsiella; strain X26) | minimum inhibitory concentration (Klebsiella; strain X68) | minimum inhibitory concentration (Streptococcus pn) | minimum inhibitory concentration (H. Influ.; res, strain 76) | minimum inhibitory concentration (H. Influ.; sens, strain C.L.) | minimum inhibitory concentration (Streptococcus D; strain 2041) | minimum inhibitory concentration (Streptococcus D; strain X66) | minimum inhibitory concentration (Proteus rett) | other results
CO/N=C(\C(=O)N[C@@H]1C(=O)N2C(C(=O)O)=C(c3csc(-c4ncc([N+](=O)[O-])s4)n3)CC[C@H]12)c1csc(N)n1 [Example 36] | 32 | 2 | .25 | 16 | 2 | 1 | .5 | .25 | .5 | 1 | 32 | .5 | < .008 | .25 | < .008 | < .008 | .015 | 4 | 64 | .06 | minimum inhibitory concentration (Enterbacter Aerogenes; strain C32): .125; minimum inhibitory concentration (Enterbacter Aerogenes; strain EB17): .25; minimum inhibitory concentration (Proteus incon): .25; minimum inhibitory concentration (Citro): .06; minimum inhibitory concentration (E. coli; strain N10): .25; minimum inhibitory concentration (E. coli; strain TEM): .25; minimum inhibitory concentration (Pseudomonas; strain PS18): > 128; minimum inhibitory concentration (Pseudomonas; strain PS72): > 128; minimum inhibitory concentration (Pseudomonas; strain X239): 32; minimum inhibitory concentration (Pseudomonas; strain X528): 32; minimum inhibitory concentration (Shig. sonn): .25; minimum inhibitory concentration (Streptococcus A): .015; minimum inhibitory concentration (Proteus morg): .25; minimum inhibitory concentration (Serratia; strain SE3): 4; minimum inhibitory concentration (Serratia; strain X99): 1
CO/N=C(\C(=O)N[C@@H]1C(=O)N2C(C(=O)O)=C(c3csc(-c4ccc(F)cc4)n3)CC[C@H]12)c1csc(N)n1 [Example 37, 7β-[(2-aminothiazol-4-yl)-Z-methoximinoacetylamino]-1-carba-(1-dethia)-3-[2-(4-fluorophenyl)thiazol-4-yl]-3-cephem-4-carboxylic acid] | > 128 | 2 | 1 | > 128 | 2 | 32 | 2 | .5 | > 128 | 2 | 128 | 2 | < .008 | .5 | < .008 | .015 | .03 | 4 | > 128 | .125 | minimum inhibitory concentration (Enterbacter Aerogenes; strain C32): 2; minimum inhibitory concentration (Enterbacter Aerogenes; strain EB17): 1; minimum inhibitory concentration (Proteus incon): .125; minimum inhibitory concentration (Citro): 4; minimum inhibitory concentration (E. coli; strain EC14): .5; minimum inhibitory concentration (E. coli; strain N10): 2; minimum inhibitory concentration (Pseudomonas; strain PS18): > 128; minimum inhibitory concentration (Pseudomonas; strain PS72): > 128; minimum inhibitory concentration (Pseudomonas; strain X239): > 128; minimum inhibitory concentration (Pseudomonas; strain X528): > 128; minimum inhibitory concentration (Shig. sonn): 1; minimum inhibitory concentration (Streptococcus A): < .008; minimum inhibitory concentration (Proteus morg): 2; minimum inhibitory concentration (Serratia; strain SE3): 8; minimum inhibitory concentration (Serratia; strain X99): 4
CO/N=C(\C(=O)N[C@@H]1C(=O)N2C(C(=O)O)=C(c3csc(C(c4ccccc4)c4ccccn4)n3)CC[C@H]12)c1csc(N)n1 (stereo partly drawn) [Example 38, 7β-[(2-aminothiazol-4-yl)-Z-methoximinoacetylamino]-1-carba-(1-dethia)-3-[2-(phenyl)(2-pyridyl)methyl)thiazol-4-yl-3-cephem-4-carboxylic acid] | > 128 | 32 | 4 | > 128 | 64 | 64 | 8 | 4 | > 128 | 8 | 64 | 128 | .125 | 4 | .015 | .125 | 2 | 8 | > 128 | 4 | minimum inhibitory concentration (Enterbacter Aerogenes; strain C32): 8; minimum inhibitory concentration (Enterbacter Aerogenes; strain EB17): 8; minimum inhibitory concentration (Proteus incon): 4; minimum inhibitory concentration (Citro): 32; minimum inhibitory concentration (E. coli; strain EC14): 4; minimum inhibitory concentration (E. coli; strain N10): 8; minimum inhibitory concentration (E. coli; strain TEM): 4; minimum inhibitory concentration (Pseudomonas; strain PS18): > 128; minimum inhibitory concentration (Pseudomonas; strain PS72): > 128; minimum inhibitory concentration (Pseudomonas; strain X239): > 128; minimum inhibitory concentration (Pseudomonas; strain X528): > 128; minimum inhibitory concentration (Shig. sonn): 8; minimum inhibitory concentration (Streptococcus A): < .008; minimum inhibitory concentration (Proteus morg): 32; minimum inhibitory concentration (Serratia; strain SE3): 64; minimum inhibitory concentration (Serratia; strain X99): 8
CO/N=C(\C(=O)N[C@@H]1C(=O)N2C(C(=O)O)=C(c3csc(N)n3)CC[C@H]12)c1csc(N)n1 [Example 39] | > 128 | 8 | 4 | > 128 | 32 | 16 | 2 | 1 | > 128 | 2 | 128 | 2 | .015 | .5 | .015 | .06 | .06 | 8 | > 128 | .25 | minimum inhibitory concentration (Enterbacter Aerogenes; strain C32): 1; minimum inhibitory concentration (Enterbacter Aerogenes; strain EB17): .5; minimum inhibitory concentration (Proteus incon): .25; minimum inhibitory concentration (Citro): 8; minimum inhibitory concentration (E. coli; strain EC14): .5; minimum inhibitory concentration (E. coli; strain N10): 1; minimum inhibitory concentration (E. coli; strain TEM): .5; minimum inhibitory concentration (Pseudomonas; strain PS18): > 128; minimum inhibitory concentration (Pseudomonas; strain PS72): > 128; minimum inhibitory concentration (Pseudomonas; strain X239): > 128; minimum inhibitory concentration (Pseudomonas; strain X528): > 128; minimum inhibitory concentration (Shig. sonn): .25; minimum inhibitory concentration (Streptococcus A): < .008; minimum inhibitory concentration (Proteus morg): 4; minimum inhibitory concentration (Serratia; strain SE3): 8; minimum inhibitory concentration (Serratia; strain X99): 1
